Laboratory results published in patent US11332395B2, “Sanitary food washing stage in food production” (CHEMTREAT, INC., priority 2019, dated 2022).
Read-outs that look alike come from different tables or passages of the source.

Assays:
[1] = flume return (clarifier inlet) water, initial pH 6.4, 62° F
Experimental: Water samples were taken from the flume return (clarifier inlet) in a sugar beet factory. […] The hydrogen peroxide concentration was measured periodically over a 60 minute period. The oxidation-reduction potential (ORP) was measured over the same period.

[2] = spray table water, initial pH 6.3, 60° F
Experimental: Water samples were taken from the spray table of a sugar beet factory. […] The hydrogen peroxide concentration was measured periodically over a 60 minute period. The oxidation-reduction potential (ORP) was measured over the same period.

[3] = initial dose 60 ppm, time 5 min
[4] = initial dose 60 ppm, time 30 min
[5] = initial dose 60 ppm, time 45 min
[6] = initial dose 60 ppm, time 60 min
[7] = initial dose 120 ppm, time 5 min
[8] = initial dose 120 ppm, time 30 min
[9] = initial dose 120 ppm, time 45 min
[10] = initial dose 120 ppm, time 60 min
[11] = initial dose 180 ppm, time 5 min
[12] = initial dose 180 ppm, time 30 min
[13] = initial dose 180 ppm, time 45 min
[14] = initial dose 180 ppm, time 60 min

SMILES: OO [H2O2, hydrogen peroxide]
- H2O2 concentration [1, 3]: 50 ppm
- H2O2 concentration [1, 4]: 3 ppm
- H2O2 concentration [1, 5]: 0.5 ppm
- H2O2 concentration [1, 6]: 0 ppm
- H2O2 concentration [1, 7]: >100 ppm
- H2O2 concentration [1, 8]: 10 ppm
- H2O2 concentration [1, 9]: 3 ppm
- H2O2 concentration [1, 10]: <0.5 ppm
- H2O2 concentration [1, 11]: >100 ppm
- H2O2 concentration [1, 12]: 25 ppm
- H2O2 concentration [1, 13]: 5 ppm
- H2O2 concentration [1, 14]: 1 ppm
- H2O2 concentration [2, 3]: 50 ppm
- H2O2 concentration [2, 4]: 5 ppm
- H2O2 concentration [2, 5]: 0.5 ppm
- H2O2 concentration [2, 6]: <0.5 ppm
- H2O2 concentration [2, 7]: >100 ppm
- H2O2 concentration [2, 8]: 15 ppm
- H2O2 concentration [2, 9]: 2 ppm
- H2O2 concentration [2, 10]: 1 ppm
- H2O2 concentration [2, 11]: >100 ppm
- H2O2 concentration [2, 12]: 25 ppm
- H2O2 concentration [2, 13]: 5 ppm
- H2O2 concentration [2, 14]: 3 ppm
